Data: patent US11648208B2, “Nano complex comprising a nano drug delivery matrix; and a ginseng extract or a ginsenoside isolated therefrom” (priority 2016, dated 2023)

Legend:
[1] = system: Escherichia coli [ATCC 10798]; assay: Antimicrobial activity, disk diffusion method on Muller-Hinton agar; format: cell-based; settings: in mm
[2] = system: Salmonella enterica [ATCC 13076]; assay: as above; format: cell-based; settings: in mm
[3] = system: Vibrio parahaemolyticus [ATCC 33844]; assay: as above; format: cell-based; settings: in mm
[4] = Solubility for water (microscopic images, HPLC of supernatants); format: physicochemical
Description: High water solubility advantageously enhances pharmacokinetic properties such as bioavailability, membrane permeability, therapeutic activity, etc.

[5] = system: keratinocyte (HaCaT Skin); assay: Cytotoxicity by MTT assay on keratinocytes; settings: up to a concentration of 15 μM

CN(C)[C@@H]1C(=O)C(C(N)=O)=C(O)[C@@]2(O)C(=O)C3=C(O)c4c(O)cccc4[C@@](C)(O)[C@H]3C[C@@H]12 [Tetracyclin, tetracycline]
Zone of inhibition [1]: 20 ± 0.1 | Zone of inhibition [2]: 30 ± 0.3 | Zone of inhibition [3]: 25 ± 0.6

CC(C)=CCC[C@](C)(O)[C@H]1CC[C@]2(C)[C@@H]1[C@H](O)C[C@@H]1[C@@]3(C)CC[C@H](O[C@@H]4O[C@H](CO)[C@@H](O)[C@H](O)[C@H]4O)C(C)(C)[C@@H]3CC[C@]12C [Rh2, 20(S)-protopanaxdiol-3-O-β-D-glucopyranoside]
solubility for water [4]: insoluble even at a low concentration | cytotoxicity on keratinocyte cell line [5]: showed cytotoxicity

CC(C)=CCC[C@](C)(O[C@@H]1O[C@H](CO)[C@@H](O)[C@H](O)[C@H]1O)[C@H]1CC[C@]2(C)[C@@H]1[C@H](O)C[C@@H]1[C@@]3(C)CC[C@H](O)C(C)(C)[C@@H]3CC[C@]12C [CK, ginsenoside Compound K]
solubility for water [4]: insoluble even at a low concentration
